The source of these data is PubChem BioAssay (NCI).

Broadly, the GI50 is the concentration that inhibits growth by half. A word on the TGI: it is the concentration giving total growth inhibition. High values mean lower sensitivity of the cells, low ones greater sensitivity of the cells.

Molecules are shown by their SMILES. “And” between values parts separate entries of the source, which are not always exact repeats. Equal values may be shown once.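 Where inhibition never reached the appropriate level, the endpoint shown equals the highest concentration tested. Otherwise, values were interpolated linearly from a five-concentration, 48-hour dose response in 96-well plates. Here, GI50 denotes the concentration required for 50% inhibition of growth. At the TGI there is no net growth.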

Among the test systems are HCT-15 colon; UACC-62 melanoma; NCI-H522 lung; BT-549 breast; SW-620 colon; CAKI-1 renal; OVCAR-3 ovarian; K-562 leukemia; SN12C renal; A498 renal.
Common to all, as to test: DTP human tumour cell line panel, 48 h

For the compound `CC(=O)O[C@H]1C(=O)[C@@]2(C)[C@H]([C@H](OC(=O)c3ccccc3)[C@]3([O-])C[C@H](OC(=O)[C@H]([O-])[C@@H](NC(=O)c4ccccc4)c4ccccc4)C(C)=C1C3(C)C)[C@]1(OC(C)=O)CO[C@@H]1C[C@@H]2[O-].[Fe+3]`, the GI50 with HCT-15 colon is 1.97 µM and 2.33 µM; in the assay on UACC-62 melanoma, 0.238 µM and 0.0875 µM; in the assay with NCI-H522 lung, 0.0385 µM; in the assay with BT-549 breast it was 0.309 µM; in the assay on SW-620 colon, 0.0352 µM and 0.0664 µM; in the assay with CAKI-1 renal, 2.41 µM and 3.53 µM. Besides, the GI50 is 0.0215 µM and 0.0434 µM with OVCAR-3 ovarian; 0.0839 µM and 0.0988 µM in the assay on K-562 leukemia. Besides, the TGI was 16.2 µM and 17 µM with HCT-15 colon; 65 µM and 15.8 µM in the assay on UACC-62 melanoma; 12.8 µM with NCI-H522 lung; 19.2 µM and 47.4 µM with SW-620 colon; 54.5 µM and > 100 µM in the assay with CAKI-1 renal; 65 µM and > 100 µM with K-562 leukemia. Also, the TGI with SN12C renal is 65 µM and > 100 µM.
For the compound `O=C1c2ccccc2-c2c1c1ccccc1c(=O)n2CCNCCCNCCn1c2c(c3ccccc3c1=O)C(=O)c1ccccc1-2`, the GI50 with HCT-15 colon is 0.0221 µM; in the assay with UACC-62 melanoma, 0.362 µM; with NCI-H522 lung it was 2.91 µM; with BT-549 breast, 0.629 µM; with SW-620 colon, less than 0.005 µM; in the assay on CAKI-1 renal, 0.563 µM. In addition, the figures for the concentration for 50% growth inhibition (GI50) in the assay on OVCAR-3 ovarian, in the assay with A498 renal and in the assay on SN12C renal were 0.362 µM, 0.432 µM and 0.011 µM, respectively. Further, the TGI in the assay with HCT-15 colon worked out at 0.334 µM; in the assay on UACC-62 melanoma it was 1.16 µM; in the assay with NCI-H522 lung it was 14.1 µM; in the assay with BT-549 breast it was 1.9 µM; in the assay on SW-620 colon, 0.58 µM; in the assay on CAKI-1 renal, 1.24 µM. In addition, the concentration for total growth inhibition (TGI) in the assay on OVCAR-3 ovarian was determined as 1.12 µM; with A498 renal, 3.33 µM; in the assay on SN12C renal it was 0.436 µM.
For `COc1cc(-c2cn(C)c(=O)c(C)c2C)cc(OC)c1CN1CC[C@H](N2CCN(c3ccc(N[C@H]4CCC(=O)NC4=O)cc3F)CC2)C(F)(F)C1`, the GI50 was 10.7 µM in the assay on HCT-15 colon; 8.09 µM in the assay with NCI-H522 lung; 12.6 µM in the assay with BT-549 breast; 17.9 µM with SW-620 colon; 6.87 µM with CAKI-1 renal; 13.4 µM in the assay on OVCAR-3 ovarian. For the same compound, the GI50 with A498 renal was 13.8 µM; in the assay on K-562 leukemia it was 9.44 µM; in the assay with SN12C renal, 11.6 µM. Moreover, the TGI in the assay with HCT-15 colon was 24.1 µM; in the assay with NCI-H522 lung, 24.1 µM; in the assay with BT-549 breast, 28.3 µM; in the assay with SW-620 colon, 38 µM; with CAKI-1 renal, 33.4 µM; with OVCAR-3 ovarian, 27.2 µM. The total growth inhibition concentration (TGI) in the assay on A498 renal was 27.2 µM; in the assay on K-562 leukemia it was greater than 100 µM; in the assay with SN12C renal, 26.8 µM.
Turning to `Cc1ncc(NC(=O)c2ccc(CN3CCN(C)CC3)c(C(F)(F)F)c2)cc1Nc1nccc(-c2cccnc2)n1`, the GI50 is 13.6 µM in the assay on HCT-15 colon; 13.2 µM in the assay with UACC-62 melanoma; 17.2 µM with NCI-H522 lung; 18.1 µM in the assay with BT-549 breast; 13.5 µM in the assay on SW-620 colon; 13.7 µM in the assay on CAKI-1 renal. Besides, the results for the GI50 in the assay with A498 renal and in the assay on SN12C renal were 20.1 µM and 14.4 µM, respectively. The TGI in the assay on HCT-15 colon came out at 29.7 µM; with UACC-62 melanoma it was 26.2 µM; in the assay on NCI-H522 lung, 33.8 µM; in the assay on BT-549 breast, 32.7 µM; with SW-620 colon it was 30.4 µM; in the assay with CAKI-1 renal, 26.7 µM. The TGI is 34.9 µM in the assay on A498 renal, greater than 100 µM with K-562 leukemia and 28.9 µM in the assay with SN12C renal.
As for `CNC(=O)c1cn(C[C@H](F)CCc2ccc(NC(=O)Cc3cc(OC4CC(F)(F)C4)cc(C)n3)nn2)nn1`, the GI50 in the assay with HCT-15 colon is greater than 100 µM; in the assay on UACC-62 melanoma, greater than 100 µM; in the assay on NCI-H522 lung it was 5.18 µM; in the assay on BT-549 breast it was greater than 100 µM; in the assay on SW-620 colon, greater than 100 µM; with A498 renal, 0.0854 µM. The GI50 with K-562 leukemia was greater than 100 µM. Also, the TGI in the assay on HCT-15 colon is greater than 100 µM; with UACC-62 melanoma, greater than 100 µM; in the assay with NCI-H522 lung, greater than 100 µM; in the assay on BT-549 breast, greater than 100 µM; with SW-620 colon it was greater than 100 µM; in the assay with A498 renal it was 1.27 µM. Moreover, the TGI in the assay on K-562 leukemia and with SN12C renal was greater than 100 µM each time.
Turning to `COc1ccc(-c2cc(-c3cc(Cl)ccc3Cl)nc3nc(=S)[nH]c(N)c23)cc1`, the GI50 with HCT-15 colon is 17.5 µM; with UACC-62 melanoma, 6.94 µM; with NCI-H522 lung, 28.2 µM; with BT-549 breast, 54.9 µM; with SW-620 colon, 38.7 µM; in the assay on CAKI-1 renal, 10.6 µM. Also, the GI50 in the assay with OVCAR-3 ovarian was 45.1 µM; with SN12C renal, 19.1 µM. Further, the TGI was greater than 100 µM in the assay on HCT-15 colon; greater than 100 µM with UACC-62 melanoma; greater than 100 µM in the assay with NCI-H522 lung; greater than 100 µM in the assay with BT-549 breast; greater than 100 µM in the assay on SW-620 colon; 62.1 µM with CAKI-1 renal. Further, the TGI in the assay with OVCAR-3 ovarian was greater than 100 µM; in the assay on SN12C renal, 65.7 µM.
As to `NC(N)=N/N=C/c1c(-c2ccccn2)nc2sc(Cl)cn12`, the GI50 in the assay with HCT-15 colon was 8.15 µM; in the assay on UACC-62 melanoma, 8.01 µM; with NCI-H522 lung, 7.86 µM; in the assay with BT-549 breast, 8.25 µM; in the assay on SW-620 colon, 5.29 µM; in the assay on CAKI-1 renal it was 8.59 µM. The GI50 with OVCAR-3 ovarian was 7.55 µM; in the assay on K-562 leukemia, 3.4 µM; with SN12C renal, 6.84 µM. Also, the TGI in the assay on HCT-15 colon is 14.9 µM; with UACC-62 melanoma, 14.9 µM; with NCI-H522 lung it was 15.3 µM; in the assay with BT-549 breast, 15.2 µM; in the assay on SW-620 colon, 11.8 µM; with CAKI-1 renal it was 15.6 µM. Besides, the concentration for total growth inhibition (TGI) in the assay with OVCAR-3 ovarian came to 14.3 µM; in the assay with K-562 leukemia, 13.8 µM; with SN12C renal, 13.3 µM.
Consider `FC(F)(F)c1ccc2c(Nc3cccc(C4CC(c5ccccc5)=NN4c4ccc(Cl)cc4)c3)ccnc2c1` (stereo not given), for which the GI50 with HCT-15 colon is 1.61 µM; in the assay on UACC-62 melanoma, 2.64 µM; in the assay on NCI-H522 lung, 6.16 µM; in the assay with BT-549 breast, 2.29 µM; in the assay on SW-620 colon it was 2.79 µM; in the assay on OVCAR-3 ovarian, 2.21 µM. For the same compound, the figures for the GI50 in the assay on A498 renal, with K-562 leukemia and in the assay on SN12C renal were 9.9 µM, 3.31 µM and 2.96 µM, respectively. The TGI came to 4.26 µM in the assay on HCT-15 colon; 10.6 µM with UACC-62 melanoma; 38.6 µM with NCI-H522 lung; 7.4 µM with BT-549 breast; 8.34 µM with SW-620 colon; 6.02 µM in the assay on OVCAR-3 ovarian. Also, the results for the TGI in the assay on A498 renal, in the assay on K-562 leukemia and with SN12C renal were 45.6 µM, 14.3 µM and 14.6 µM, respectively.
